Results published in patent US20190308956A1, “PIPERAZINE DERIVATIVES AS ANTIVIRAL AGENTS WITH INCREASED THERAPEUTIC ACTIVITY” (SERVICIO ANDALUZ DE SALUD, priority 2016, published 2019).

What was measured:
HAdV5-GFP = assay: Plaque assay, HAdV5-GFP in 293β5 cells; type: cell-based; conditions: for Selectivity Index (SI) HAdV5: ratio CC50 to IC50, HAdV5; for IC50: read-out: IC50 HAdV5; for inhibition at 10 µM: read-out: Percentage of plaque formation inhibition, HAdV5-GFP, 10 μM, 293β5 cell line
Outline: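 293β5 cells infected with HAdV5-GFP at 0.06 vp/cell for 2 h at 37° C. Then overlaid with agar/EMEM containing compound (5 to 1 μM stated range; screen run at 10 μM). After 7 days at 37° C., GFP plaques imaged and counted relative to DMSO control.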

wild-type HAdV5 = assay: Virus yield reduction (burst assay, TCID50), HAdV5; type: cell-based; conditions: 50 μM, A549 cells, 48 h, yield with DMSO divided by yield with compound
Experimental: (§1) 1.8. Virus yield reduction. The effect of the active compounds on virus production was evaluated in a burst assay A549 cells were infected with wild-type HAdV5 or HAdV16 (MOI 100) in the presence or absence of 50 μM compounds. After 48 h, cells were harvested and subjected to three rounds of freeze/thaw. Serial dilutions of clarified lysates were titrated on A549 cells and TCID50 values were calculated using an endpoint dilution method.46

HCMV (AD169) = assay: HCMV infectivity assay by quantitative PCR; type: cell-based, human cytomegalovirus; conditions: Human betaherpesvirus 5, AD169, MRC5, MRC-5 cells, 72 h, qPCR, read-out: Inhibition of HCMV DNA replication
Experimental: 1.9. HCMV infectivity assay by quantitative PCR. […] After 72 h of incubation at 37° C., DNA was purified from the cell lysate with the QlAamp DNA Mini Kit (QIAGEN, Valencia, Calif.) following the manufacturer's instructions. TaqMan primers and probes for a region of the US28 gene were designed with the GenScript Real-time PCR (TaqMan) Primer Design software (GenScript). Oligonucleotides sequences were CMV-F: 5′-[…]-3′; CMV-R: 5′-[…]-3′; and CMV-Probe: 5′-[…]-3′. Real-time PCR mixtures consisted of 10 μl the purified DNA, CMV-F at a concentration of 100 nM, CMV-R at a concentration of 300 nM, and CMV-Probe at a concentration of 50 nM in a total volume of 12.5 μl and mixed with 12.5 μl of KAPA PROBE FAST qPCR Master Mix (KAPABiosystems, MA). The PCR cycling protocol was 95° C. for 10 min followed by 40 cycles of 95° C. for 30 sec and 58° C. for 60 sec. Human glyceraldehyde-3-phosphate dehydrogenase (GAPDH) was used as internal control. Oligonucleotides sequences for GAPDH and conditions were those previously reported by Rivera et al.44 For quantification, gene fragment from US28 and GAPDH were cloned into the pGEM-T Easy vector (Promega) and known concentrations of template were used to generate a standard curve in parallel for each experiment. All assays were performed in a C1000 Thermal Cycler apparatus (BioRad).

HAdV16-GFP = assay: Plaque assay, HAdV16-GFP in 293β5 cells; type: cell-based; conditions: for Selectivity Index (SI) HAdV16: ratio CC50 to IC50, HAdV16
Experimental: 1.5. Plaque assay. For low MOI infections, active compounds were further evaluated in a plaque assay. 293β5 cells were seeded in 6-well plates at 4×10^5 cells per well in duplicate for each condition. When cells reached 80-90% confluency, they were infected with HAdV5-GFP or HAdV16-GFP (0.06 vp/cell) and rocked for 2 h at 37° C. The inoculum was removed and the cells were washed once with PBS. The cells were then carefully overlaid with 4 ml/well of equal parts of 1.6% […] Difco Agar Noble (Becton, Dickinson & Co, Sparks, MD) and 2× EMEM (BioWhittaker) supplemented with 2x penicillin/streptomycin, 2× L-glutamine and 10% FBS. The mixture also contained compound in concentrations ranging from 5 to 1 μM. Following incubation for 7 days at 37° C., plates were scanned with a Typhoon 9410 imager (GE Healthcare Life Sciences), and plaques were quantified with ImageJ.43

wild-type HAdV16 = assay: Virus yield reduction (burst assay, TCID50), HAdV16; type: cell-based; conditions: 50 μM, A549 cells, 48 h, yield with DMSO divided by yield with compound
Experimental: as §1

[1] = Cytotoxicity assay (alamarBlue cell viability); type: cell-based, Human; conditions: human, A549 cells, 48 h
Outline: (§2)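 Actively dividing A549 cells exposed to compounds for 48 h, then alamarBlue (1/10th in culture medium) added for a further 4 h. CC50 taken as concentration giving 50% cytotoxicity; selectivity index = CC50/IC50, with IC50 from HAdV infection inhibition.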

A549 cells = assay: Cytotoxicity assay (alamarBlue cell viability); type: cell-based, Human; conditions: A549 cells, 48 h; read-out: CC50
Outline: as §2

wild type HAdV5 = assay: HAdV5 DNA quantification by real-time PCR; type: cell-based; conditions: A549, 24 h, A549 cells, 24 h post-infection, qPCR, read-out: Inhibition of HAdV5 DNA replication
Experimental: 1.6. DNA quantification by real-time PCR. For DNA quantification, A549 cells (150,000 cells/well in a 24 wells-plate) were infected with wild type HAdV5 or HAdV16 (100 vp/cell) and incubated for 2 h at 37° C. in complete DMEM. After the incubation, excess virus was removed and the medium was replaced with 500 μl of complete DMEM containing 50 μM of either compounds or the same volume of DMSO (positive control). All samples were done in triplicate. After 24 h of incubation at 37° C., DNA was purified from the cell lysate with the QlAamp DNA Mini Kit (QIAGEN, Valencia, Calif.) following the manufacturer's instructions. TaqMan primers and probes for a region of the HAdV5 hexon were designed with the GenScript Real-time PCR (TaqMan) Primer Design software (GenScript). Oligonucleotides sequences were AdF: 5′-[…]-3′; AdR: 5′-[…]-3′; and AdProbe: 5′-[…]-3′. […]
Human glyceraldehyde-3-phosphate dehydrogenase (GAPDH) gene was used as internal control. Oligonucleotides sequences for GAPDH and conditions were those previously reported by Rivera et al.44 For quantification, gene fragments from hexon and GAPDH were cloned into the pGEM-T Easy vector (Promega) and known concentrations of template were used to generate a standard curve in parallel for each experiment. […]

O=C(c1cc2ccccc2o1)N1CCN(C(=O)Nc2ccc(Cl)cc2)C(c2ccccc2)C1 (stereo not shown) [Compound 60, 4-(Benzofuran-2-carbonyl)-1-[(4-chlorophenyl)aminocarbonyl]-2-phenylpiperazine]
Selectivity Index (SI) HAdV5 (HAdV5-GFP): 79 | IC50 (HAdV5-GFP): 2.5 ± 1.17 µM | inhibition at 10 µM (HAdV5-GFP): 96 to 100% | Virus yield reduction HAdV5 (wild-type HAdV5): 9.9 ± 3.4 fold | inhibition at 50 µM (HCMV (AD169)): 98.2 ± 2.1% | IC50 (HAdV16-GFP): 3.4 ± 0.93 µM | Selectivity Index (SI) HAdV16 (HAdV16-GFP): 56.9 | Virus yield reduction HAdV16 (wild-type HAdV16): 27.4 ± 16.9 fold | CC50 at 48 h [1]: 194 ± 9.19 µM

O=C(c1cc2ccccc2o1)N1CCN(C(=O)Nc2ccc([N+](=O)[O-])cc2)C(c2ccccc2)C1 (stereo not shown) [Compound 59, 4-(Benzofuran-2-carbonyl)-1-[(4-nitrophenyl)aminocarbonyl]-2-phenylpiperazine]
Selectivity Index (SI) HAdV5 (HAdV5-GFP): 93.5 | IC50 (HAdV5-GFP): 2.1 ± 0.1 µM | inhibition at 10 µM (HAdV5-GFP): 96 to 100% | Virus yield reduction HAdV5 (wild-type HAdV5): 35.7 ± 13.5 fold | inhibition at 50 µM (HCMV (AD169)): 99.9 ± 0.06% | IC50 (HAdV16-GFP): 3.5 ± 1.03 µM | Selectivity Index (SI) HAdV16 (HAdV16-GFP): 55.4 | Virus yield reduction HAdV16 (wild-type HAdV16): 34.6 ± 11.6 fold | CC50 at 48 h [1]: 193.9 ± 1.68 µM

N#Cc1ccc(NC(=O)N2CCN(C(=O)c3cc4ccccc4o3)CC2c2ccccc2)cc1 (stereo not shown) [Compound 63, 4-(Benzofuran-2-carbonyl)-1-[(4-cyanophenyl)aminocarbonyl]-2-phenylpiperazine]
Selectivity Index (SI) HAdV5 (HAdV5-GFP): 42.7 | IC50 (HAdV5-GFP): 4.7 ± 0.11 µM | inhibition at 10 µM (HAdV5-GFP): 96 to 100% | Virus yield reduction HAdV5 (wild-type HAdV5): 16.9 ± 5.2 fold | inhibition at 50 µM (HCMV (AD169)): 99.9 ± 0.05% | IC50 (HAdV16-GFP): 3.9 ± 1.12 µM | Selectivity Index (SI) HAdV16 (HAdV16-GFP): 51.2 | Virus yield reduction HAdV16 (wild-type HAdV16): 60.9 ± 12.5 fold | CC50 at 48 h [1]: 199.8 ± 0.26 µM | CC50 (A549 cells): 199.8 ± 0.26 µM

O=C(c1cc2ccccc2o1)N1CCN(C(=O)Nc2ccccc2[N+](=O)[O-])C(c2ccccc2)C1 (stereo not shown) [Compound 64, 4-(Benzofuran-2-carbonyl)-1-[(2-nitrophenyl)aminocarbonyl]-2-phenylpiperazine]
Selectivity Index (SI) HAdV5 (HAdV5-GFP): 53.3 | IC50 (HAdV5-GFP): 2.5 ± 0.03 µM | inhibition at 10 µM (HAdV5-GFP): 96 to 100% | Virus yield reduction HAdV5 (wild-type HAdV5): 34.5 ± 12.6 fold | inhibition at 50 µM (HCMV (AD169)): 97.9 ± 0.9% | IC50 (HAdV16-GFP): 2.3 ± 0.17 µM | Selectivity Index (SI) HAdV16 (HAdV16-GFP): 57.3 | Virus yield reduction HAdV16 (wild-type HAdV16): 46.5 ± 10.8 fold | CC50 at 48 h [1]: 132 ± 6.01 µM | CC50 (A549 cells): 132 ± 6.01 µM

O=C(c1cc2ccccc2o1)N1CCN(C(=O)Nc2cc(C(F)(F)F)ccc2Cl)C(c2ccccc2)C1 (stereo not shown) [Compound 65, 4-(Benzofuran-2-carbonyl)-1-[(2-chloro-5-trifluoromethylphenyl)aminocarbonyl]-2 phenylpiperazine]
Selectivity Index (SI) HAdV5 (HAdV5-GFP): 116.2 | IC50 (HAdV5-GFP): 1.1 ± 0.05 µM | inhibition at 10 µM (HAdV5-GFP): 96 to 100% | Virus yield reduction HAdV5 (wild-type HAdV5): 60.3 ± 15.2 fold | inhibition at 50 µM (wild type HAdV5): 33.1 ± 0.5% | inhibition at 50 µM (HCMV (AD169)): 98.2 ± 0.38% | IC50 (HAdV16-GFP): 1.8 ± 0.2 µM | Selectivity Index (SI) HAdV16 (HAdV16-GFP): 72.7 | Virus yield reduction HAdV16 (wild-type HAdV16): 33.2 ± 7.3 fold | CC50 at 48 h [1]: 131 ± 17.8 µM

CC(C)(C)OC(=O)N1CCN(C(=O)Nc2ccc([N+](=O)[O-])cc2)C(c2ccccc2)C1 (stereo not shown) [Compound 46, 4-tert-Butoxycarbonyl-1-[(4-nitrophenyl)aminocarbonyl]-2-phenylpiperazine]
Selectivity Index (SI) HAdV5 (HAdV5-GFP): 47.3 | IC50 (HAdV5-GFP): 3.4 ± 0.96 µM | inhibition at 10 µM (HAdV5-GFP): 96 to 100% | Virus yield reduction HAdV5 (wild-type HAdV5): 211.7 ± 44.1 fold | inhibition at 50 µM (HCMV (AD169)): 99.6 ± 0.39% | IC50 (HAdV16-GFP): 4.8 ± 1.24 µM | Selectivity Index (SI) HAdV16 (HAdV16-GFP): 33.6 | Virus yield reduction HAdV16 (wild-type HAdV16): 265.5 ± 29.1 fold | CC50 at 48 h [1]: 161 ± 45.2 µM | CC50 (A549 cells): 161 ± 45.2 µM
